Test results: ChEMBL document CHEMBL5137083 (J Med Chem, 2022)

How the values were obtained:
Design in all cases: species or system Cell membrane
[1] = molecular target: T1, Melatonin receptor type 1A (Homo sapiens, UniProt P48039); experiment: Displacement of 2-[125I]iodomelatonin from human melatonin MT1 receptor stably expressing in human HEK293 cell membranes under dark condition by radioligand based competition binding assay
[2] = molecular target: T1, Melatonin receptor type 1A; experiment: Displacement of 2-[125I]iodomelatonin from human melatonin MT1 receptor stably expressing in human HEK293 cell membranes in presence of light-activated compounds by radioligand based competition binding assay
[3] = molecular target: T2, Melatonin receptor type 1B (Homo sapiens, UniProt P49286); experiment: Displacement of 2-[125I]iodomelatonin from human melatonin MT2 receptor stably expressing in human HEK293 cell membranes in presence of light-activated compounds by radioligand based competition binding assay
T2 sequence (P49286 whole entry): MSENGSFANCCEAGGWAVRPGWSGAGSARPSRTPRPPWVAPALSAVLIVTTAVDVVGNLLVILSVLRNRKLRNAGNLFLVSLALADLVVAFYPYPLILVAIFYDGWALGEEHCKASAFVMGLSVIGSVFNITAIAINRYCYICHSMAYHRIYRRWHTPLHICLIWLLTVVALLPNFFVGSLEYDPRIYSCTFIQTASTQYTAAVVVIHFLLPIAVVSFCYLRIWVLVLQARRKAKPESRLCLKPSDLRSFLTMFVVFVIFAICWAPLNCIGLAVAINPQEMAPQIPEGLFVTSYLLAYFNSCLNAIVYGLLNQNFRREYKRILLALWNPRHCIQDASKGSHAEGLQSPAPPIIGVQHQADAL

[4] = molecular target: T2, Melatonin receptor type 1B; experiment: Displacement of 2-[125I]iodomelatonin from human melatonin MT2 receptor stably expressing in human HEK293 cell membranes under dark condition by radioligand based competition binding assay

T1 sequence (P48039 whole entry): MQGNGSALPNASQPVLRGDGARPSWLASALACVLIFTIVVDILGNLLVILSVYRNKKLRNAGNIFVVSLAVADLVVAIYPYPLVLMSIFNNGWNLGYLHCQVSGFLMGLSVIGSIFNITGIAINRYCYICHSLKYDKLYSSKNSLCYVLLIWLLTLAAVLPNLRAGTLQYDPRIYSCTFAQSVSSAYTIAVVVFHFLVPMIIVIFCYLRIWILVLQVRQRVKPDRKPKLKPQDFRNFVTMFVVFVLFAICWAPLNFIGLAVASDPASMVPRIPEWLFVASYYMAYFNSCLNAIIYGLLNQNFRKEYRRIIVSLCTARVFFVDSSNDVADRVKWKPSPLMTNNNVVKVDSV

For `COc1ccc2c(c1)c(CCNC(C)=O)cn2C(=O)OCc1cc(OC)c(OC)cc1[N+](=O)[O-]`, the Ki [1] was 51.3 nM, the Ki [2] was 7.76 nM and the Ki [3] was 6.92 nM. It also gave a Ki [4] of 39.8 nM.
